Source: US10988456B2, “O-aminoheteroaryl alkynyl-containing compound, preparation method therefor, and use thereof” (SHANGHAI INSTITUTE OF MATERIA MEDICA, CHINESE ACADEMY OF …, priority 2017, dated 2021)
Entries after “also recorded” stand apart in the source; their conditions may differ.

Assays:
FGFR1 = FGFR1 (Homo sapiens, UniProt P11362); experiment: Inhibition of receptor tyrosine kinase activity at molecular level (ELISA, Poly(Glu,Tyr)4:1 substrate phosphorylation); type: biochemical; conditions: 10 nM compound; average of two independent experiments
Description: (§1) Enzyme reaction substrate Poly(Glu, Tyr)4:1 was diluted with potassium-free PBS (10 mM sodium phosphate buffer, 150 mM NaCl, pH 7.2-7.4) to 20 μg/mL. […] The reaction was conducted under 37° C. for 12-16 hours. After the liquid was removed from the wells, the plate was washed three times with 200 μL/well of T-PBS (PBS containing 0.1% Tween-20), each for 5 minutes. The enzyme plate was dried in 37° C. dryer for 1-2 hours.
(§2) 50 μL ATP solution diluted with buffer (50 mM HEPES pH 7.4, 50 mM MgCl2, 0.5 mM MnCl2, 0.2 mM Na3VO4, 1 mM DTT) to a final concentration of 5 μM was added into each well. The compound was diluted with DMSO to a suitable concentration (1 μL/well) or the well contained the corresponding concentration of DMSO (negative control well) Then various kinase recombinant proteins diluted with 49 μL of reaction buffer was added to initiate the reaction. Each experiment required duplicate enzyme-free control well. The reaction was carried out for 1 hour on a 37° C. Shaker (100 rpm). The plate was washed three times with T-PBS. A dilution of the primary antibody PY99 was added (100 μL/well), and the reaction was conducted in a shaker at 37° C. for 0.5 hr. The plate was washed three times with T-PBS. A dilution of the horseradish peroxidase-labeled goat anti-mouse IgG secondary antibody was added (100 μL/well), and the reaction was conducted in a shaker at 37° C. for 0.5 hour. Plate was washed with T-PBS for three times. 2 mg/mL OPD coloration solution (diluted with 0.1 M citric acid-sodium citrate buffer containing 0.03% H2O2 (pH=5.4)) was added (100 μL/well), reacted for 1-10 minutes at 25° C. in dark. The reaction was quenched with 2M H2SO4 (50 μL/well), and read at 490 nm using a tunable microplate reader SPECTRA MAX 190.
(§3) The inhibition ratio of the sample was determined by the following formula: […]
(§4) The IC50 values were obtained via four-parameter regression analysis using the software supplied with the microplate reader.

KDR = KDR (Homo sapiens, UniProt P35968); experiment: as above; type: biochemical; conditions: 10 nM compound; average of two independent experiments
Description: as §1, §2, §3, §4

RET = RET (Homo sapiens, UniProt P07949); experiment: as above; type: biochemical; conditions: 10 nM compound; average of two independent experiments
Description: as §1, §2, §3, §4

[1] = tested on: human gastric cancer SNU-16 xenografts; experiment: Growth of subcutaneous xenografts of human gastric cancer SNU-16 in nude mice (comparative compounds study); conditions: for Weight (g, mean ± SD): SNU-16 tumor-bearing mice
Description: The tumor tissue in the vigorous growth period was cut into 1.5 mm^3, and inoculated subcutaneously in the right axilla of nude mice under aseptic conditions. The diameter of the xenograft in nude mice was measured with a vernier caliper. The animals were randomly divided into groups when the average tumor volume was grown to about 190 mm^3. […] The diameter of the xenograft was measured twice a week during the entire experiment, and the body weight of the mice was weighed. The tumor volume (TV) was calculated as: TV=½×a×b^2, where a and b represented length and width, respectively. The relative tumor volume (RTV) was calculated based on the measured results, and the formula was: RTV=Vt/V0, wherein V0 represented the tumor volume obtained when the mice was divided and administered (i.e., d0), and Vt represented the tumor volume at each measurement. The anti-tumor activity evaluation index was the relative tumor proliferation rate T/C (%), and the calculation formula was as follows: T/C (%)=(TRTV/CRTV)×100%, wherein TRTV was TRV in treatment group; and CRTV was RTV in negative control group.

Chain of KDR (P35968 20-1356): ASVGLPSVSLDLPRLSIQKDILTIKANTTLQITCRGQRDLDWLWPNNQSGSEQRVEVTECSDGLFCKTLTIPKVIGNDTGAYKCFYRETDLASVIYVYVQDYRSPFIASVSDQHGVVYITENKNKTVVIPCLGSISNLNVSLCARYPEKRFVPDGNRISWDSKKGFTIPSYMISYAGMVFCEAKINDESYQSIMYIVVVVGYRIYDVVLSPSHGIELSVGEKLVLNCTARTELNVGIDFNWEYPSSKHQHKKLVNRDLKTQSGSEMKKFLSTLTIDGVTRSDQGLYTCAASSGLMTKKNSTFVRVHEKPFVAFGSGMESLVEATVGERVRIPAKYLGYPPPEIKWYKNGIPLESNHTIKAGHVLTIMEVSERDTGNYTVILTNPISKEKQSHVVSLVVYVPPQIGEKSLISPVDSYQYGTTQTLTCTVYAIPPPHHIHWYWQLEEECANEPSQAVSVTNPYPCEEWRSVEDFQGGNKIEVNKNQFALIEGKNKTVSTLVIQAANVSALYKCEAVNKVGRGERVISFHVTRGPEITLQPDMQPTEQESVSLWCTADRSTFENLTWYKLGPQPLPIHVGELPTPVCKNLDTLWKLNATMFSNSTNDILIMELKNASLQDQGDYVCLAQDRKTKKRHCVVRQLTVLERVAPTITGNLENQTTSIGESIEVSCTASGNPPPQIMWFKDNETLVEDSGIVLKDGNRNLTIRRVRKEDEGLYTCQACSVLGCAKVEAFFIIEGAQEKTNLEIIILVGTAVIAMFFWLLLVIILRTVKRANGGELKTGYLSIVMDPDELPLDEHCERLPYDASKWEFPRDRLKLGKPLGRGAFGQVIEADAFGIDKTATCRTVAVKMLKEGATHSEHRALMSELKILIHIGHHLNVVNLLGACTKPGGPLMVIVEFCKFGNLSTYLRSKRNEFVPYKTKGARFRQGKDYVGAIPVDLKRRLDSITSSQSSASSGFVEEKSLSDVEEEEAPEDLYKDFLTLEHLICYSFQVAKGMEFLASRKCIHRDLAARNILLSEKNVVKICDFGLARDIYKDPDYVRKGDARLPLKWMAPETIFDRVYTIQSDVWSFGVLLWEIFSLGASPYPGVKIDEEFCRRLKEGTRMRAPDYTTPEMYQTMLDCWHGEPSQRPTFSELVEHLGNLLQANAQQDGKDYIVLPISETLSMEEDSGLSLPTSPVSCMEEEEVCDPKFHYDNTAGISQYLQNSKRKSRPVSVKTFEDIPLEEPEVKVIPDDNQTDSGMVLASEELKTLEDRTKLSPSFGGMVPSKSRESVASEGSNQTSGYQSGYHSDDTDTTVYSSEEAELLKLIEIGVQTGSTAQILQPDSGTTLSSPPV
Chain of FGFR1 (P11362 22-822): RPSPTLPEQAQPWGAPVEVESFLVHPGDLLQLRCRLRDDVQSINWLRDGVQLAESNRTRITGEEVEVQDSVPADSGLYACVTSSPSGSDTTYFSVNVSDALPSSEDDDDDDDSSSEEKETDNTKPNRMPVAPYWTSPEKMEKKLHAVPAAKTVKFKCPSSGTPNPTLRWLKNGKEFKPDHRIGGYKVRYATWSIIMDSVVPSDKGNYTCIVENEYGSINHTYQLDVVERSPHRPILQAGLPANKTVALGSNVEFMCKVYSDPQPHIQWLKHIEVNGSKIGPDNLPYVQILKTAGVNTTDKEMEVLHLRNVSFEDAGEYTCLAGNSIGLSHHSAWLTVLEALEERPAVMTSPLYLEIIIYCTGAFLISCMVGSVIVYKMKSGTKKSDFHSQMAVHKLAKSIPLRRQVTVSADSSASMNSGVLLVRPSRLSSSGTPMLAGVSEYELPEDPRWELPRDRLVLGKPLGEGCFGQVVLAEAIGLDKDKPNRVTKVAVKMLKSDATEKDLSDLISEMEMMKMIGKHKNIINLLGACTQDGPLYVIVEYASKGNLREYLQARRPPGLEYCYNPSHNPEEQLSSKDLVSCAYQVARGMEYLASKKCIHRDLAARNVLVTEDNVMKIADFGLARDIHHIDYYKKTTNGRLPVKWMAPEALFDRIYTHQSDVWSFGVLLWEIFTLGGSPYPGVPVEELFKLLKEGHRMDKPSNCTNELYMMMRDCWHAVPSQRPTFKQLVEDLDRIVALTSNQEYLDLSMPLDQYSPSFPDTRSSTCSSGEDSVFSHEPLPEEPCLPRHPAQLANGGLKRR
Chain of RET (P07949 29-1114): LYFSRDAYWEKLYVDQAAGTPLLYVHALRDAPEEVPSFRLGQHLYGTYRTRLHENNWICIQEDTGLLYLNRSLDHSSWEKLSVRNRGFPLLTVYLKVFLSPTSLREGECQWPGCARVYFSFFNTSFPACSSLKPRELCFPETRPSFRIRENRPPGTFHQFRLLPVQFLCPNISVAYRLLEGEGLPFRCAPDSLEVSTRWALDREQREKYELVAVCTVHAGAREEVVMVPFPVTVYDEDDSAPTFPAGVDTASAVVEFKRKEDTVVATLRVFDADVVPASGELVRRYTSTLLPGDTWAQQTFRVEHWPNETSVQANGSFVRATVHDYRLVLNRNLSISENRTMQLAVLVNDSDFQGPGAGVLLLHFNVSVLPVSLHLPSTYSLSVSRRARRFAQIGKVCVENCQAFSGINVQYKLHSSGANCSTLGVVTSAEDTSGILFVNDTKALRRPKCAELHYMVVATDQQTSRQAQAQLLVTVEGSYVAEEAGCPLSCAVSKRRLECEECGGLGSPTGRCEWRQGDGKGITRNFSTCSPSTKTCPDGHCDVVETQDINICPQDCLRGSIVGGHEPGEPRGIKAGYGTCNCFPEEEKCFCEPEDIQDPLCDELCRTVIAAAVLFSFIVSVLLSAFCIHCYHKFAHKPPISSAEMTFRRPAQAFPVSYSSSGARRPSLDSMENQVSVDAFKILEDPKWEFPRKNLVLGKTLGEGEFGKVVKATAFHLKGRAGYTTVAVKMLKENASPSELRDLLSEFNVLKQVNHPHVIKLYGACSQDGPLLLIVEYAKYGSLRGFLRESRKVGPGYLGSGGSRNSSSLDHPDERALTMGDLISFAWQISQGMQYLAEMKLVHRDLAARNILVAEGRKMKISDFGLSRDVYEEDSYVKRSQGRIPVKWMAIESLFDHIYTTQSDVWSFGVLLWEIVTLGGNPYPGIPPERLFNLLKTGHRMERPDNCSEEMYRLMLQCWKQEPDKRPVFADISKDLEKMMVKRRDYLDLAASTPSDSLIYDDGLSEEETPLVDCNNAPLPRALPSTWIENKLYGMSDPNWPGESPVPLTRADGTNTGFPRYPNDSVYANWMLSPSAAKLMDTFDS

CN1CCN(Cc2ccc(NC(=O)c3ccc(F)c(C#Cc4cccnc4N)c3)cc2C(F)(F)F)CC1 [Example 2]
10 nM inhibition ratio FGFR1 (FGFR1): 73.0
10 nM inhibition ratio KDR (KDR): 44.3
10 nM inhibition ratio RET (RET): 69.2

Cc1ccc(C(=O)Nc2ccc(CN3CCN(C)CC3)c(C(F)(F)F)c2)cc1C#Cc1cccnc1N [Example 3]
10 nM inhibition ratio FGFR1 (FGFR1): 52.4
10 nM inhibition ratio KDR (KDR): 34.7
10 nM inhibition ratio RET (RET): 69.1

COc1ccc(C(=O)Nc2ccc(CN3CCN(C)CC3)c(C(F)(F)F)c2)cc1C#Cc1cccnc1N [Example 4]
10 nM inhibition ratio FGFR1 (FGFR1): 51.1
10 nM inhibition ratio KDR (KDR): 4.6
10 nM inhibition ratio RET (RET): 52.0

CN1CCN(Cc2ccc(NC(=O)c3ccc(C#N)c(C#Cc4cccnc4N)c3)cc2C(F)(F)F)CC1 [Example 5]
10 nM inhibition ratio FGFR1 (FGFR1): 45.1
10 nM inhibition ratio KDR (KDR): 15.2
10 nM inhibition ratio RET (RET): 40.1

CN1CCN(Cc2ccc(NC(=O)c3cc(F)cc(C#Cc4cccnc4N)c3)cc2C(F)(F)F)CC1 [Example 7]
10 nM inhibition ratio FGFR1 (FGFR1): 80.7
10 nM inhibition ratio KDR (KDR): 38.9
10 nM inhibition ratio RET (RET): 92.4

CN1CCN(Cc2ccc(NC(=O)c3cc(C#Cc4cccnc4N)ccc3F)cc2C(F)(F)F)CC1 [Example 8]
10 nM inhibition ratio FGFR1 (FGFR1): 46.0
10 nM inhibition ratio KDR (KDR): 30.4
10 nM inhibition ratio RET (RET): 53.4

CN1CCN(Cc2ccc(NC(=O)c3cc(Cl)cc(C#Cc4cccnc4N)c3)cc2C(F)(F)F)CC1 [Example 9]
10 nM inhibition ratio FGFR1 (FGFR1): 60.7
10 nM inhibition ratio KDR (KDR): 28.9
10 nM inhibition ratio RET (RET): 83.4

CN1CCN(Cc2ccc(NC(=O)c3cc(C#Cc4cccnc4N)cc(C(F)(F)F)c3)cc2C(F)(F)F)CC1 [Example 10]
10 nM inhibition ratio FGFR1 (FGFR1): 36
10 nM inhibition ratio KDR (KDR): 34.5
10 nM inhibition ratio RET (RET): 63.4

CN1CCN(Cc2ccc(NC(=O)c3cc(C#N)cc(C#Cc4cccnc4N)c3)cc2C(F)(F)F)CC1 [Example 11]
10 nM inhibition ratio FGFR1 (FGFR1): 54.0
10 nM inhibition ratio KDR (KDR): 34.3
10 nM inhibition ratio RET (RET): 68.2

Cc1cc(C#Cc2cccnc2N)cc(C(=O)Nc2ccc(CN3CCN(C)CC3)c(C(F)(F)F)c2)c1 [Example 12]
10 nM inhibition ratio FGFR1 (FGFR1): 75.1
10 nM inhibition ratio KDR (KDR): 24.0
10 nM inhibition ratio RET (RET): 73.2

COc1cc(C#Cc2cccnc2N)cc(C(=O)Nc2ccc(CN3CCN(C)CC3)c(C(F)(F)F)c2)c1 [Example 13]
10 nM inhibition ratio FGFR1 (FGFR1): 70.2
10 nM inhibition ratio KDR (KDR): 15.1
10 nM inhibition ratio RET (RET): 64.3

Cc1ccc(C#Cc2cccnc2N)cc1C(=O)Nc1ccc(CN2CCN(C)CC2)c(C(F)(F)F)c1 [Example 14]
10 nM inhibition ratio FGFR1 (FGFR1): 46.1
10 nM inhibition ratio KDR (KDR): 20.3
10 nM inhibition ratio RET (RET): 57.6

COc1ccc(C#Cc2cccnc2N)cc1C(=O)Nc1ccc(CN2CCN(C)CC2)c(C(F)(F)F)c1 [Example 15]
10 nM inhibition ratio FGFR1 (FGFR1): 59.9
10 nM inhibition ratio KDR (KDR): 15.4
10 nM inhibition ratio RET (RET): 61.2

CN1CCN(Cc2ccc(NC(=O)c3ccc(Cl)c(C#Cc4cc(F)cnc4N)c3)cc2C(F)(F)F)CC1 [Example 16]
10 nM inhibition ratio FGFR1 (FGFR1): 70.5
10 nM inhibition ratio KDR (KDR): 25.2
10 nM inhibition ratio RET (RET): 71.8

CN1CCN(Cc2ccc(NC(=O)c3ccc(Cl)c(C#Cc4cc(Cl)cnc4N)c3)cc2C(F)(F)F)CC1 [Example 17]
10 nM inhibition ratio FGFR1 (FGFR1): 68.0
10 nM inhibition ratio KDR (KDR): 25.0
10 nM inhibition ratio RET (RET): 73.3

Cc1cnc(N)c(C#Cc2cc(C(=O)Nc3ccc(CN4CCN(C)CC4)c(C(F)(F)F)c3)ccc2Cl)c1 [Example 18]
10 nM inhibition ratio FGFR1 (FGFR1): 65.5
10 nM inhibition ratio KDR (KDR): 20.3
10 nM inhibition ratio RET (RET): 58.2

CN1CCN(Cc2ccc(NC(=O)c3ccc(Cl)c(C#Cc4cc(C5CC5)cnc4N)c3)cc2C(F)(F)F)CC1 [Example 19]
10 nM inhibition ratio FGFR1 (FGFR1): 59.3
10 nM inhibition ratio KDR (KDR): 13.2
10 nM inhibition ratio RET (RET): 69.4

CN1CCN(Cc2ccc(NC(=O)c3ccc(Cl)c(C#Cc4cc(C(F)(F)F)cnc4N)c3)cc2C(F)(F)F)CC1 [Example 20]
10 nM inhibition ratio FGFR1 (FGFR1): 71.1
10 nM inhibition ratio KDR (KDR): 23.4
10 nM inhibition ratio RET (RET): 70.8

CN1CCN(Cc2ccc(NC(=O)c3ccc(Cl)c(C#Cc4cc(C#N)cnc4N)c3)cc2C(F)(F)F)CC1 [Example 21]
10 nM inhibition ratio FGFR1 (FGFR1): 44.3
10 nM inhibition ratio KDR (KDR): 32.0
10 nM inhibition ratio RET (RET): 58.1

COc1cnc(N)c(C#Cc2cc(C(=O)Nc3ccc(CN4CCN(C)CC4)c(C(F)(F)F)c3)ccc2Cl)c1 [Example 22]
10 nM inhibition ratio FGFR1 (FGFR1): 75.1
10 nM inhibition ratio KDR (KDR): 24.9
10 nM inhibition ratio RET (RET): 59.3

CN1CCN(Cc2ccc(NC(=O)c3ccc(Cl)c(C#Cc4cc(OC(F)(F)F)cnc4N)c3)cc2C(F)(F)F)CC1 [Example 23]
10 nM inhibition ratio FGFR1 (FGFR1): 74.1
10 nM inhibition ratio KDR (KDR): 33.1
10 nM inhibition ratio RET (RET): 60.0

CN1CCN(Cc2ccc(NC(=O)c3ccc(Cl)c(C#Cc4cc(OC5CC5)cnc4N)c3)cc2C(F)(F)F)CC1 [Example 24]
10 nM inhibition ratio FGFR1 (FGFR1): 64.1
10 nM inhibition ratio KDR (KDR): 23.5
10 nM inhibition ratio RET (RET): 66.1

CN1CCN(Cc2ccc(NC(=O)c3ccc(Cl)c(C#Cc4cc(OC5COC5)cnc4N)c3)cc2C(F)(F)F)CC1 [Example 25]
10 nM inhibition ratio FGFR1 (FGFR1): 54.5
10 nM inhibition ratio KDR (KDR): 33.2
10 nM inhibition ratio RET (RET): 49.9

CN1CCN(Cc2ccc(NC(=O)c3ccc(Cl)c(C#Cc4cncc(N5CCOCC5)c4)c3)cc2C(F)(F)F)CC1 [HuFGFR1-113]
animal deaths ([1]; SNU-16, 20 mg/kg group): one mouse died on day 20
Relative tumor volume RTV (mean ± SD) ([1]; SNU-16, 20 mg/kg orally once a day, d0): 1.00 ± 0.00
Relative tumor volume RTV (mean ± SD) ([1]; SNU-16, 20 mg/kg orally once a day, d3): 1.12 ± 0.03
Relative tumor volume RTV (mean ± SD) ([1]; SNU-16, 20 mg/kg orally once a day, d7): 0.64 ± 0.23
Relative tumor volume RTV (mean ± SD) ([1]; SNU-16, 20 mg/kg orally once a day, d10): 0.54 ± 0.22
Relative tumor volume RTV (mean ± SD) ([1]; SNU-16, 20 mg/kg orally once a day, d14): 0.92 ± 0.17
Relative tumor volume RTV (mean ± SD) ([1]; SNU-16, 20 mg/kg orally once a day, d17): 1.18 ± 0.42
Relative tumor volume RTV (mean ± SD) ([1]; SNU-16, 20 mg/kg orally once a day, d21): 1.35 ± 0.15
relative tumor proliferation rate T/C ([1]; SNU-16, 20 mg/kg orally once a day, day 21): 23.30%
animal deaths ([1]; SNU-16, 100 mg/kg group): One mouse died on the third day; also recorded: Two mice died on the fifth day
toxicity / condition of the mice (in words) ([1]; SNU-16, 100 mg/kg group): significant toxicity
Relative tumor volume RTV (mean ± SD) ([1]; SNU-16, 100 mg/kg orally once a day (administration interrupted), d0): 1.00 ± 0.00
Relative tumor volume RTV (mean ± SD) ([1]; SNU-16, 100 mg/kg orally once a day (administration interrupted), d3): 1.32 ± 0.40
Relative tumor volume RTV (mean ± SD) ([1]; SNU-16, 100 mg/kg orally once a day (administration interrupted), d7): 0.58 ± 0.02
Relative tumor volume RTV (mean ± SD) ([1]; SNU-16, 100 mg/kg orally once a day (administration interrupted), d10): 0.60 ± 0.02
Relative tumor volume RTV (mean ± SD) ([1]; SNU-16, 100 mg/kg orally once a day (administration interrupted), d14): 0.58 ± 0.35
Relative tumor volume RTV (mean ± SD) ([1]; SNU-16, 100 mg/kg orally once a day (administration interrupted), d17): 1.16 ± 0.86
Relative tumor volume RTV (mean ± SD) ([1]; SNU-16, 100 mg/kg orally once a day (administration interrupted), d21): 1.52 ± /
weight of the tumor-bearing mice (in words) ([1]; SNU-16, HuFGFR1-113 at 20 mg/kg, HuFGFR1-117 dose not stated): decreased significantly
Weight (g, mean ± SD) ([1]; 20 mg/kg orally once a day, d0): 23.2 ± 1.8 g
Weight (g, mean ± SD) ([1]; 20 mg/kg orally once a day, d3): 24.0 ± 1.5 g
Weight (g, mean ± SD) ([1]; 20 mg/kg orally once a day, d7): 22.4 ± 1.8 g
Weight (g, mean ± SD) ([1]; 20 mg/kg orally once a day, d10): 20.2 ± 1.9 g
Weight (g, mean ± SD) ([1]; 20 mg/kg orally once a day, d14): 19.7 ± 2.9 g
Weight (g, mean ± SD) ([1]; 20 mg/kg orally once a day, d17): 20.1 ± 3.7 g
Weight (g, mean ± SD) ([1]; 20 mg/kg orally once a day, d21): 20.3 ± 1.6 g
Weight (g, mean ± SD) ([1]; 100 mg/kg orally once a day (administration interrupted), d0): 23.4 ± 2.7 g
Weight (g, mean ± SD) ([1]; 100 mg/kg orally once a day (administration interrupted), d3): 23.1 ± 2.0 g
Weight (g, mean ± SD) ([1]; 100 mg/kg orally once a day (administration interrupted), d7): 20.7 ± 0.1 g
Weight (g, mean ± SD) ([1]; 100 mg/kg orally once a day (administration interrupted), d10): 22.1 ± 0.4 g
Weight (g, mean ± SD) ([1]; 100 mg/kg orally once a day (administration interrupted), d14): 25.4 ± 1.6 g
Weight (g, mean ± SD) ([1]; 100 mg/kg orally once a day (administration interrupted), d17): 25.5 ± 3.0 g
Weight (g, mean ± SD) ([1]; 100 mg/kg orally once a day (administration interrupted), d21): 21.2 ± / g
